≈ marks a conversion by molar mass, not a printed value.

For this series the following is noted: buffer; pH 7.4; 200.0 µM.
For `Cc1ccc2c(CN3CCN(Cc4ccccc4)CC3)cc(=O)oc2c1C`, the solubility (kinetic) (as a rule, the concentration staying in solution when a stock, usually in DMSO, is diluted into the medium) turned out to be 25.4 µg/mL (≈ 70.1 µM).

Take `CC1CCC(NS(=O)(=O)c2ccc3c(c2)CC(=O)N3)CC1` (centres undefined): the kinetic solubility was 27.3 µg/mL (≈ 88.5 µM).

Turning to `O=C(NC(=S)N1CCCCCC1)c1ccccc1`, the solubility (kinetic) is above 39.4 µg/mL.

Compound `CCOC(=O)C1CCCN(Cc2nc(CC3CC3)no2)C1` (centres undefined) returned a solubility (kinetic) of 40 µg/mL (≈ 136 µM).

`O=C(NCc1ccccc1)C1CCN(C(=O)Cc2ccccc2)CC1`: the solubility (kinetic) was above 50.5 µg/mL.

`COc1cc(/C=C/C(=O)OCC(=O)NCCCc2ccccc2)cc(OC)c1OC`: the solubility (kinetic) was found to be 27.8 µg/mL (≈ 67.2 µM).

The compound `O=C(Nc1ccc2c(c1)OCCO2)c1cc(F)c(F)cc1Cl` displayed a solubility (kinetic) of 2.8 µg/mL (≈ 8.6 µM).

Take `Cc1c(C(=O)N2CCN(S(=O)(=O)c3cccs3)CC2)oc2ccc(F)cc12`: the solubility (kinetic) stood at 13.6 µg/mL (≈ 33.3 µM).

Turning to `COc1ccc(CCNC(=O)c2cc(C)oc2C)cc1`, the kinetic solubility is above 41 µg/mL.

`O=c1[nH]c(=S)[nH]cc1S(=O)(=O)c1cccc(Cl)c1` displayed a solubility (kinetic) above 45.4 µg/mL.

`CC(OC(=O)C1CC1C)C(=O)Nc1ccc(Cl)cn1` (centres undefined) had a kinetic solubility of 40.9 µg/mL (≈ 145 µM).

Regarding `C=CCNC(=O)COC(=O)c1ccc(Cl)c(S(N)(=O)=O)c1`, the solubility (kinetic) is above 49.9 µg/mL.

`Cc1ccc2c(CN3CCN(Cc4ccccc4)CC3)cc(=O)oc2c1` registered a solubility (kinetic) of 49.4 µg/mL (≈ 142 µM).

Compound `O=C(COC(=O)c1ccncc1)c1ccc(Cl)c(Cl)c1` showed a solubility (kinetic) of 39.8 µg/mL (≈ 128 µM).

Compound `O=C(COC(=O)/C=C/c1cccc(Cl)c1)NC1CC1` had a kinetic solubility of 4.8 µg/mL (≈ 17.2 µM).

Compound `O=C(/C=C/c1ccccc1Cl)NC1CCCCC1` registered a solubility (kinetic) below 0.6 µg/mL.

On to `CCC(=O)N=c1ccn(C2=Nc3ccccc3NC2=C(C#N)C#N)cc1`, for which the solubility (kinetic) was found to be 30.9 µg/mL (≈ 90.3 µM).

Take `COc1ccccc1NC(=O)COC(=O)c1cn(C)c2ccccc12`: the solubility (kinetic) turned out to be 1.5 µg/mL (≈ 4.43 µM).

For the compound `Cn1nccc1C(=O)N1CCOCC1`, the solubility (kinetic) was above 29.3 µg/mL.

On to `Cc1cccc(NC(=O)NC2CC3CCC(C2)N3Cc2ccco2)c1` (centres undefined), for which the solubility (kinetic) was 11.1 µg/mL (≈ 32.7 µM).

Compound `Cc1cccnc1Nc1nc(-c2ccccc2)cs1` showed a solubility (kinetic) of 7.6 µg/mL (≈ 28.4 µM).

`COc1ccc(NC(=O)CCN2C(=O)c3ccccc3C2=O)cc1`: the kinetic solubility was found to be 23.1 µg/mL (≈ 71.2 µM).

With `Cc1cc(=O)[nH]c(SCC(=O)N2CCCC2)n1`, the solubility (kinetic) is above 38 µg/mL.

For `COc1ccc(CNC(=O)COc2ccc(OC)cc2)cc1`, the solubility (kinetic) was found to be 35.8 µg/mL (≈ 119 µM).

`NCCCCCC(=O)O` had a kinetic solubility of 0.9 µg/mL (≈ 6.86 µM).

With `OCCOCCN1CCN(C(=S)Nc2ccccc2)CC1`, the solubility (kinetic) was above 46.4 µg/mL.

Consider `Fc1ccccc1-c1nc(-c2cnccc2C(F)(F)F)no1`, for which the solubility (kinetic) came out at 8 µg/mL (≈ 25.9 µM).

As for `CNC(=O)CSc1nc2ccccc2c(=O)n1C1CCCCC1`, the kinetic solubility was above 49.7 µg/mL.

The compound `CC(C)CNC1CCS(=O)(=O)C1.Cl` (centres undefined) displayed a kinetic solubility above 34.2 µg/mL.

`C/C=C(\C)CN1CCCC(CO)(Cc2ccccc2)C1` (centres undefined) gave a kinetic solubility of 34.3 µg/mL (≈ 125 µM).

As to `COCCN(Cc1ccccc1)C(=O)C1CCN(C(=O)Nc2ccccc2)CC1`, the solubility (kinetic) is above 59.3 µg/mL.

`CC(=O)c1ccc(S(=O)(=O)N2CCCc3ccccc32)cc1` came in with a solubility (kinetic) of 24.5 µg/mL (≈ 77.7 µM).

The compound `Cc1ccc(S(=O)(=O)N2CCC(C(=O)OCC(=O)NCc3cccc(Cl)c3)CC2)cc1C` showed a solubility (kinetic) of 11 µg/mL (≈ 23 µM).

On to `COc1ccccc1CNC(=O)COC(=O)c1ccco1`, for which the solubility (kinetic) is above 43.4 µg/mL.

In turn, `COc1ccccc1CNC(=O)COC(=O)Cn1cnc2ccccc21` gave a solubility (kinetic) of 38.3 µg/mL (≈ 108 µM).

In turn, `Cc1cccc(OCC(=O)NCc2ccccc2)c1` gave a solubility (kinetic) above 38.3 µg/mL.

In turn, `CC(NC(=O)COC(=O)C12CC3CC(CC(O)(C3)C1)C2)c1ccccc1` (centres undefined) returned a solubility (kinetic) above 53.6 µg/mL.

For `CC(=O)Nc1ccc(S(=O)(=O)NCCc2ccccn2)cc1`, the solubility (kinetic) is 44 µg/mL (≈ 138 µM).

In turn, `CC(=O)Nc1sc2c(c1C#N)CCC2` came in with a solubility (kinetic) above 30.9 µg/mL.

The compound `Nc1ccc(C(=O)OCc2nc3ccccc3s2)cc1` had a kinetic solubility of 27 µg/mL (≈ 95 µM).

Take `FC(F)(F)Oc1ccc(-c2cn3cccnc3n2)cc1`: the kinetic solubility is 8.5 µg/mL (≈ 30.4 µM).

In the case of `Cc1cc(=O)[nH]c(SCC(=O)NC2CCCCCCC2)n1`, the kinetic solubility is above 46.4 µg/mL.

With `COc1ccc(OC)c(NC(=O)CC2Oc3ccccc3NC2=O)c1` (centres undefined), the kinetic solubility was determined as 6.4 µg/mL (≈ 18.7 µM).

As for `Cc1cccc(-n2c(/C=C/c3ccccn3)nc3ccccc3c2=O)c1`, the kinetic solubility is 0.5 µg/mL (≈ 1.47 µM).

Take `CCOC(=O)C(CC(=O)O)NCc1ccco1` (centres undefined): the solubility (kinetic) is 34.3 µg/mL (≈ 142 µM).

Regarding `CC1(C)C2CCC(C2)C1(C)NC(=O)CN1CCCC1.Cl` (centres undefined), the solubility (kinetic) was above 45.1 µg/mL.

As to `Cc1cc(C)c(S(=O)(=O)Nc2cnc3ccccc3c2)c(C)c1`, the solubility (kinetic) was 19.2 µg/mL (≈ 58.8 µM).

`O=C1NC(=O)/C(=C\c2ccc(O)cc2O)S1` displayed a kinetic solubility above 35.6 µg/mL.

`Cc1ccc(-c2csc3nc[nH]c(=O)c23)cc1C` showed a solubility (kinetic) of 6.6 µg/mL (≈ 25.7 µM).

As for `Cc1cc(C)cc(NC(=O)[C@@H](NC(=O)c2ccco2)C(C)C)c1`, the kinetic solubility turned out to be 2.8 µg/mL (≈ 8.91 µM).

Compound `CSCC[C@H](NC(=O)c1ccco1)c1nnc2ccccn12` registered a kinetic solubility above 47.5 µg/mL.

With `Cc1ccnc(NC(=O)COC(=O)C23CC4CC(CC(C4)C2)C3)n1`, the kinetic solubility amounted to 8.7 µg/mL (≈ 26.4 µM).

In turn, `O=C(c1cc(Cl)ccc1Cl)N1CCN(Cc2ccccc2)CC1` displayed a kinetic solubility above 52.4 µg/mL.

As to `COC(=O)CN(c1nc(C)c(Br)c(OC)n1)S(=O)(=O)c1ccccc1`, the kinetic solubility was determined as 14.4 µg/mL (≈ 33.5 µM).

Compound `CC(=O)c1ccc(-n2c(CCC(=O)O)ccc2-c2ccccc2)cc1` registered a solubility (kinetic) of 41.5 µg/mL (≈ 124 µM).

`COc1ccc(CNc2nc3ccccc3s2)cc1OC` gave a solubility (kinetic) of 1.4 µg/mL (≈ 4.66 µM).

`NS(=O)(=O)c1ccc(NC(=O)c2ccc3c(c2)CCCC3)cc1` displayed a solubility (kinetic) below 0.4 µg/mL.

As for `Cc1cc(C)c2c(CC(=O)N3CCCC3)coc2c1`, the solubility (kinetic) is above 38.6 µg/mL.

`CCOCCCNc1ccc(N2C(=O)CCCC2=O)cc1[N+](=O)[O-]` had a kinetic solubility above 50.3 µg/mL.

`COc1cc(OC)cc(C(=O)N[C@H](C(=O)OCC(=O)c2c[nH]c3ccccc23)C(C)C)c1`: the solubility (kinetic) was 3.8 µg/mL (≈ 8.67 µM).

`Cc1onc(-c2ccccc2)c1NC(=O)N(CCC#N)Cc1cccs1` yielded a solubility (kinetic) of 54.4 µg/mL (≈ 148 µM).

Regarding `CN(C)/C(=N\S(=O)(=O)c1ccc(F)cc1)c1ccccc1`, the solubility (kinetic) is above 46 µg/mL.

As to `CC(C)(C)NC(=O)COc1ccc2oc3c(c2c1)CCCC3`, the solubility (kinetic) is 2.2 µg/mL (≈ 7.3 µM).

The compound `Cc1ccc([N+](=O)[O-])cc1S(=O)(=O)NCCc1cn2ccccc2n1` returned a solubility (kinetic) of 35 µg/mL (≈ 97.1 µM).

As for `Cc1ccc(CNC(=S)NC2CCCCC2)cc1`, the solubility (kinetic) was 32.3 µg/mL (≈ 123 µM).

Consider `CCCCC1=NN(C(=O)c2ccncc2)C(O)(C(F)(F)F)C1` (centres undefined), for which the kinetic solubility was above 47.3 µg/mL.

As to `O=C(Nc1ccc(F)cc1)C(Cc1ccccc1)n1cccc1` (centres undefined), the kinetic solubility came to 31.4 µg/mL (≈ 102 µM).

In the case of `CCCc1cc(=O)[nH]c(NCCc2ccccc2)n1`, the kinetic solubility was above 38.6 µg/mL.

`Cc1ccc(NC(=O)C23CCC(C)(C(=O)[C@H]2Br)C3(C)C)cc1` (some centres undefined): the kinetic solubility was 43.2 µg/mL (≈ 119 µM).

As for `S=C(NCc1ccc(Cl)c(Cl)c1)NCc1ccco1`, the solubility (kinetic) is 23.1 µg/mL (≈ 73.3 µM).

`CC1CCCC(NC(=O)COC(=O)CCc2ccccc2)C1C` (centres undefined) yielded a solubility (kinetic) of 12.2 µg/mL (≈ 38.4 µM).

`Cc1ccc(NC(=O)Cn2c([N+](=O)[O-])cnc2C)cc1Cl` had a kinetic solubility of 1.6 µg/mL (≈ 5.18 µM).

Take `CCC(OCC(O)CN1CCCCC1)c1ccccc1.Cl` (centres undefined): the kinetic solubility is above 47.1 µg/mL.

Compound `COc1ccccc1CNCc1cc(=O)oc2c(C)c(C)ccc12` returned a kinetic solubility of 3.6 µg/mL (≈ 11.1 µM).

Source of the values: PubChem BioAssay AID1996.
